From US20230085307A1, “PYRIDAZINONE COMPOUND AND HERBICIDE” (NISSAN CHEMICAL CORPORATION, priority 2019, published 2023)

The compounds below were run on late watergrass (assay: Test Example 1: herbicidal activity, application before weed generation under submerged conditions (Table 16, symbol A)). Conditions: 320 g/ha applied herbicide.
Assay type: in vivo, late watergrass (Echinochloa oryzicola)
Procedure, shortened: (§1)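 Emulsion formulation, water-diluted to set dose, was put onto the flooded surface (4 cm depth, alluvial soil) the same day weeds were sown and 2.5-leaf rice transplanted. After 3 weeks at 25-30 °C under glass, each species was rated 0 (≤5% kill) to 5 (≥90% kill).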

| Compound | Herbicidal effect on A: late watergrass (grade 0-5) |
| --- | --- |
| CC(=O)c1ccc(-c2sc3ccc(F)cc3c2-c2c(O)c(C)nn(C)c2=O)cc1 [2-339] | 4 (Herbicidal rate of 70% or more and less than 90%) |
| Cc1nn(C)c(=O)c(-c2c(-c3ccc([N+](=O)[O-])cc3)sc3ccc(F)cc23)c1O [2-341] | 3 (Herbicidal rate of 40% or more and less than 70%) |

What follows are compounds tested on Japanese bulrush (assay: Test Example 1: herbicidal activity, application before weed generation under submerged conditions (Table 16, symbol B)). Conditions: 320 g/ha applied herbicide.
Assay type: in vivo, Japanese bulrush (Schoenoplectus juncoides)
Procedure, shortened: as §1

| Compound | Herbicidal effect on B: Japanese bulrush (grade 0-5) |
| --- | --- |
| CC(=O)c1ccc(-c2sc3ccc(F)cc3c2-c2c(O)c(C)nn(C)c2=O)cc1 [2-339] | 5 (Herbicidal rate of 90% or more (almost completely withered)) |
| Cc1nn(C)c(=O)c(-c2c(-c3ccc([N+](=O)[O-])cc3)sc3ccc(F)cc23)c1O [2-341] | 4 (Herbicidal rate of 70% or more and less than 90%) |

These compounds were tested on oval-leafed pondweed (assay: Test Example 1: herbicidal activity, application before weed generation under submerged conditions (Table 16, symbol C)). Conditions: 320 g/ha applied herbicide.
Assay type: in vivo, oval-leafed pondweed (Monochoria vaginalis)
Procedure, shortened: as §1

| Compound | Herbicidal effect on C: oval-leafed pondweed (grade 0-5) |
| --- | --- |
| CC(=O)c1ccc(-c2sc3ccc(F)cc3c2-c2c(O)c(C)nn(C)c2=O)cc1 [2-339] | 5 (Herbicidal rate of 90% or more (almost completely withered)) |
| Cc1nn(C)c(=O)c(-c2c(-c3ccc([N+](=O)[O-])cc3)sc3ccc(F)cc23)c1O [2-341] | 5 (Herbicidal rate of 90% or more (almost completely withered)) |

These compounds were tested on barnyard grass (assay: Test Example 3: herbicidal effect by foliage application, Wagner pot (Table 18, symbol H)). Conditions: amount of applied herbicide 320 g/ha.
Assay type: in vivo, barnyard grass (Echinochloa crus-galli)
Procedure, shortened: (§2)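 Plants were sown in alluvial soil held under 0.1–0.5 cm standing water and grown 14 days in a greenhouse at 25–30 °C. An emulsifiable formulation, water-diluted to the set dose, was then sprayed onto the foliage, and effects were scored three weeks later using previously defined criteria.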

| Compound | herbicidal effect on H: barnyard grass |
| --- | --- |
| CC(=O)c1ccc(-c2sc3ccc(F)cc3c2-c2c(O)c(C)nn(C)c2=O)cc1 [2-339] | 5 (Herbicidal rate of 90% or more (almost completely withered)) |
| Cc1nn(C)c(=O)c(-c2c(-c3ccc([N+](=O)[O-])cc3)sc3ccc(F)cc23)c1O [2-341] | 4 (Herbicidal rate of 70% or more and less than 90%) |

What follows are compounds tested on Chinese sprangletop (assay: Test Example 3: herbicidal effect by foliage application, Wagner pot (Table 18, symbol D)). Conditions: amount of applied herbicide 320 g/ha.
Assay type: in vivo, chinese sprangletop (Leptochloa chinensis)
Procedure, shortened: as §2

| Compound | herbicidal effect on D: Chinese sprangletop |
| --- | --- |
| CC(=O)c1ccc(-c2sc3ccc(F)cc3c2-c2c(O)c(C)nn(C)c2=O)cc1 [2-339] | 4 (Herbicidal rate of 70% or more and less than 90%) |
| Cc1nn(C)c(=O)c(-c2c(-c3ccc([N+](=O)[O-])cc3)sc3ccc(F)cc23)c1O [2-341] | 3 (Herbicidal rate of 40% or more and less than 70%) |

The compounds below were run on rice flat sedge (assay: Test Example 3: herbicidal effect by foliage application, Wagner pot (Table 18, symbol E)). Conditions: amount of applied herbicide 320 g/ha.
Assay type: in vivo, rice flat sedge (Cyperus iria)
Procedure, shortened: as §2

| Compound | herbicidal effect on E: rice flat sedge |
| --- | --- |
| CC(=O)c1ccc(-c2sc3ccc(F)cc3c2-c2c(O)c(C)nn(C)c2=O)cc1 [2-339] | 4 (Herbicidal rate of 70% or more and less than 90%) |
| Cc1nn(C)c(=O)c(-c2c(-c3ccc([N+](=O)[O-])cc3)sc3ccc(F)cc23)c1O [2-341] | 3 (Herbicidal rate of 40% or more and less than 70%) |

What follows are compounds tested on Italian ryegrass (assay: Test Example 4: herbicidal effect by soil treatment (Table 19, symbol K)). Conditions: amount of applied herbicide 320 g/ha.
Assay type: in vivo, Italian ryegrass (Lolium multiflorum)
Procedure, shortened: (§3)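 Emulsion of test compound, water-diluted to predetermined amount, sprayed on soil after sowing (seed depth ~1.5 cm, sterilized diluvial soil). Greenhouse, 25–30° C. Effect graded at three weeks post-spray.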

| Compound | herbicidal effect on K: Italian ryegrass |
| --- | --- |
| CC(=O)c1ccc(-c2sc3ccc(F)cc3c2-c2c(O)c(C)nn(C)c2=O)cc1 [2-339] | 4 (Herbicidal rate of 70% or more and less than 90%) |
| Cc1nn(C)c(=O)c(-c2c(-c3ccc([N+](=O)[O-])cc3)sc3ccc(F)cc23)c1O [2-341] | 5 (Herbicidal rate of 90% or more (almost completely withered)) |

What follows are compounds tested on windgrass (assay: Test Example 4: herbicidal effect by soil treatment (Table 19, symbol L)). Conditions: amount of applied herbicide 320 g/ha.
Assay type: in vivo, windgrass (Apera spica-venti)
Procedure, shortened: as §3

| Compound | herbicidal effect on L: windgrass |
| --- | --- |
| CC(=O)c1ccc(-c2sc3ccc(F)cc3c2-c2c(O)c(C)nn(C)c2=O)cc1 [2-339] | 2 (Herbicidal rate of 20% or more and less than 40%) |
| Cc1nn(C)c(=O)c(-c2c(-c3ccc([N+](=O)[O-])cc3)sc3ccc(F)cc23)c1O [2-341] | 1 (Herbicidal rate of 5% or more and less than 20%) |

Each compound was assayed on lambsquarters (assay: Test Example 4: herbicidal effect by soil treatment (Table 19, symbol O)). Conditions: amount of applied herbicide 320 g/ha.
Assay type: in vivo, lambsquarters (Chenopodium album)
Procedure, shortened: as §3

| Compound | herbicidal effect on O: lambsquarters |
| --- | --- |
| CC(=O)c1ccc(-c2sc3ccc(F)cc3c2-c2c(O)c(C)nn(C)c2=O)cc1 [2-339] | 4 (Herbicidal rate of 70% or more and less than 90%) |
| Cc1nn(C)c(=O)c(-c2c(-c3ccc([N+](=O)[O-])cc3)sc3ccc(F)cc23)c1O [2-341] | 4 (Herbicidal rate of 70% or more and less than 90%) |

What follows are compounds tested on chickweed (assay: Test Example 4: herbicidal effect by soil treatment (Table 19, symbol P)). Conditions: amount of applied herbicide 320 g/ha.
Assay type: in vivo, common chickweed (Stellaria media)
Procedure, shortened: as §3

| Compound | herbicidal effect on P: chickweed |
| --- | --- |
| CC(=O)c1ccc(-c2sc3ccc(F)cc3c2-c2c(O)c(C)nn(C)c2=O)cc1 [2-339] | 3 (Herbicidal rate of 40% or more and less than 70%) |
| Cc1nn(C)c(=O)c(-c2c(-c3ccc([N+](=O)[O-])cc3)sc3ccc(F)cc23)c1O [2-341] | 4 (Herbicidal rate of 70% or more and less than 90%) |

These compounds were tested on persian speedwell (assay: Test Example 4: herbicidal effect by soil treatment (Table 19, symbol R)). Conditions: amount of applied herbicide 320 g/ha.
Assay type: in vivo, Persian speedwell (Veronica persica)
Procedure, shortened: as §3

| Compound | herbicidal effect on R: persian speedwell |
| --- | --- |
| CC(=O)c1ccc(-c2sc3ccc(F)cc3c2-c2c(O)c(C)nn(C)c2=O)cc1 [2-339] | 4 (Herbicidal rate of 70% or more and less than 90%) |
| Cc1nn(C)c(=O)c(-c2c(-c3ccc([N+](=O)[O-])cc3)sc3ccc(F)cc23)c1O [2-341] | 5 (Herbicidal rate of 90% or more (almost completely withered)) |

Each compound was assayed on southern crabgrass (assay: Test Example 5: herbicidal effect by foliage application, plastic box (Table 20, symbol F)). Conditions: foliage application, AAH 320 g/ha, evaluated three weeks after application.
Assay type: in vivo, southern crabgrass (Digitaria ciliaris)
Procedure, shortened: (§4)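 Post-emergence foliar test in sterilized diluvial soil. Compound applied as water-diluted emulsion at a predetermined rate to 14-day-old plants; evaluation at three weeks.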

| Compound | F: southern crabgrass, herbicidal effect (criteria 0-5) |
| --- | --- |
| CC(=O)c1ccc(-c2sc3ccc(F)cc3c2-c2c(O)c(C)nn(C)c2=O)cc1 [2-339] | 3 (Herbicidal rate of 40% or more and less than 70%) |
| Cc1nn(C)c(=O)c(-c2c(-c3ccc([N+](=O)[O-])cc3)sc3ccc(F)cc23)c1O [2-341] | 5 (Herbicidal rate of 90% or more (almost completely withered)) |

The compounds below were run on barnyard grass (assay: Test Example 5: herbicidal effect by foliage application, plastic box (Table 20, symbol H)). Conditions: foliage application, AAH 320 g/ha, evaluated three weeks after application.
Assay type: in vivo, barnyard grass (Echinochloa crus-galli)
Procedure, shortened: as §4

| Compound | H: barnyard grass, herbicidal effect (criteria 0-5) |
| --- | --- |
| CC(=O)c1ccc(-c2sc3ccc(F)cc3c2-c2c(O)c(C)nn(C)c2=O)cc1 [2-339] | 3 (Herbicidal rate of 40% or more and less than 70%) |
| Cc1nn(C)c(=O)c(-c2c(-c3ccc([N+](=O)[O-])cc3)sc3ccc(F)cc23)c1O [2-341] | 4 (Herbicidal rate of 70% or more and less than 90%) |

What follows are compounds tested on wild oat (assay: Test Example 5: herbicidal effect by foliage application, plastic box (Table 20, symbol I)). Conditions: foliage application, AAH 320 g/ha, evaluated three weeks after application.
Assay type: in vivo, wild oat (Avena fatua)
Procedure, shortened: as §4

| Compound | I: wild oat, herbicidal effect (criteria 0-5) |
| --- | --- |
| CC(=O)c1ccc(-c2sc3ccc(F)cc3c2-c2c(O)c(C)nn(C)c2=O)cc1 [2-339] | 3 (Herbicidal rate of 40% or more and less than 70%) |
| Cc1nn(C)c(=O)c(-c2c(-c3ccc([N+](=O)[O-])cc3)sc3ccc(F)cc23)c1O [2-341] | 4 (Herbicidal rate of 70% or more and less than 90%) |

These compounds were tested on blackgrass (assay: Test Example 5: herbicidal effect by foliage application, plastic box (Table 20, symbol J)). Conditions: foliage application, AAH 320 g/ha, evaluated three weeks after application.
Assay type: in vivo, blackgrass (Alopecurus myosuroides)
Procedure, shortened: as §4

| Compound | J: blackgrass, herbicidal effect (criteria 0-5) |
| --- | --- |
| CC(=O)c1ccc(-c2sc3ccc(F)cc3c2-c2c(O)c(C)nn(C)c2=O)cc1 [2-339] | 1 (Herbicidal rate of 5% or more and less than 20%) |
| Cc1nn(C)c(=O)c(-c2c(-c3ccc([N+](=O)[O-])cc3)sc3ccc(F)cc23)c1O [2-341] | 4 (Herbicidal rate of 70% or more and less than 90%) |

What follows are compounds tested on windgrass (assay: Test Example 5: herbicidal effect by foliage application, plastic box (Table 20, symbol L)). Conditions: foliage application, AAH 320 g/ha, evaluated three weeks after application.
Assay type: in vivo, windgrass (Apera spica-venti)
Procedure, shortened: as §4

| Compound | L: windgrass, herbicidal effect (criteria 0-5) |
| --- | --- |
| CC(=O)c1ccc(-c2sc3ccc(F)cc3c2-c2c(O)c(C)nn(C)c2=O)cc1 [2-339] | 5 (Herbicidal rate of 90% or more (almost completely withered)) |
| Cc1nn(C)c(=O)c(-c2c(-c3ccc([N+](=O)[O-])cc3)sc3ccc(F)cc23)c1O [2-341] | 4 (Herbicidal rate of 70% or more and less than 90%) |

The compounds below were run on velvetleaf (assay: Test Example 5: herbicidal effect by foliage application, plastic box (Table 20, symbol M)). Conditions: foliage application, AAH 320 g/ha, evaluated three weeks after application.
Assay type: in vivo, velvetleaf (Abutilon theophrasti)
Procedure, shortened: as §4

| Compound | M: velvetleaf, herbicidal effect (criteria 0-5) |
| --- | --- |
| CC(=O)c1ccc(-c2sc3ccc(F)cc3c2-c2c(O)c(C)nn(C)c2=O)cc1 [2-339] | 5 (Herbicidal rate of 90% or more (almost completely withered)) |
| Cc1nn(C)c(=O)c(-c2c(-c3ccc([N+](=O)[O-])cc3)sc3ccc(F)cc23)c1O [2-341] | 5 (Herbicidal rate of 90% or more (almost completely withered)) |

Each compound was assayed on redroot pigweed (assay: Test Example 5: herbicidal effect by foliage application, plastic box (Table 20, symbol N)). Conditions: foliage application, AAH 320 g/ha, evaluated three weeks after application.
Assay type: in vivo, redroot pigweed (Amaranthus retroflexus)
Procedure, shortened: as §4

| Compound | N: redroot pigweed, herbicidal effect (criteria 0-5) |
| --- | --- |
| CC(=O)c1ccc(-c2sc3ccc(F)cc3c2-c2c(O)c(C)nn(C)c2=O)cc1 [2-339] | 5 (Herbicidal rate of 90% or more (almost completely withered)) |
| Cc1nn(C)c(=O)c(-c2c(-c3ccc([N+](=O)[O-])cc3)sc3ccc(F)cc23)c1O [2-341] | 5 (Herbicidal rate of 90% or more (almost completely withered)) |

What follows are compounds tested on chickweed (assay: Test Example 5: herbicidal effect by foliage application, plastic box (Table 20, symbol P)). Conditions: foliage application, AAH 320 g/ha, evaluated three weeks after application.
Assay type: in vivo, common chickweed (Stellaria media)
Procedure, shortened: as §4

| Compound | P: chickweed, herbicidal effect (criteria 0-5) |
| --- | --- |
| CC(=O)c1ccc(-c2sc3ccc(F)cc3c2-c2c(O)c(C)nn(C)c2=O)cc1 [2-339] | 5 (Herbicidal rate of 90% or more (almost completely withered)) |
| Cc1nn(C)c(=O)c(-c2c(-c3ccc([N+](=O)[O-])cc3)sc3ccc(F)cc23)c1O [2-341] | 5 (Herbicidal rate of 90% or more (almost completely withered)) |
